Measurements: PubChem BioAssay (NCI)
Several values for one entry are separate records, joined by “and”; a condition that tells them apart may be missing. Equal entries are not always repeated.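 1) Cells in 96-well plates. 2) Compound, 48 h, 5 concentrations. 3) Linear interpolation between surrounding doses. 4) Unreached endpoint = highest concentration. At the GI50, growth is halved. TGI: concentration producing complete growth inhibition.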

Assays:
Assay in all cases: inhibition of tumour cell growth, NCI panel, 48 h
[1] = tested on: U251 CNS
[2] = tested on: SW-620 colon
[3] = tested on: HT29 colon
[4] = tested on: DLD-1 colon
[5] = tested on: HCT-116 colon
[6] = tested on: CAKI-1 renal
[7] = tested on: SF-268 CNS
[8] = tested on: MOLT-4 leukemia
[9] = tested on: UACC-257 melanoma
[10] = tested on: HL-60(TB) leukemia

SMILES: COc1cc(C(C)c2cc3c(cc2OCCNC(=O)COc2cc4c(cc2C(C)c2cc(OC)c(OC)c(OC)c2)OCO4)OCO3)cc(OC)c1OC (stereo not drawn)
- TGI [1]: > 100 µM
- TGI [2]: > 100 µM
- TGI [3]: > 100 µM
- TGI [4]: > 100 µM
- TGI [5]: > 100 µM
- TGI [6]: > 100 µM
- TGI [7]: > 100 µM
- TGI [8]: 71.8 µM
- TGI [9]: > 100 µM
- TGI [10]: > 100 µM

SMILES: C1CN(P2(N3CC3)=NP(N3CC3)(N3CC3)=NP(N3CC3)(N3CC3)=N2)CCO1 (stereo not drawn)
- TGI [1]: > 100 µM
- TGI [2]: > 100 µM
- TGI [3]: > 100 µM
- TGI [4]: > 100 µM
- TGI [5]: > 100 µM
- TGI [6]: > 100 µM
- TGI [7]: > 100 µM
- TGI [8]: > 100 µM
- TGI [9]: > 100 µM
- TGI [10]: > 100 µM

SMILES: CC1=NOC(=O)/C1=C/c1ccc([N+](=O)[O-])cc1
- TGI [1]: > 100 µM
- TGI [2]: > 100 µM
- TGI [3]: > 100 µM
- TGI [4]: > 100 µM
- TGI [5]: > 100 µM
- TGI [6]: > 100 µM
- TGI [7]: > 100 µM
- TGI [8]: > 100 µM
- TGI [9]: > 100 µM
- TGI [10]: > 100 µM

SMILES: C/C(CC(=O)Nc1ccccc1C)=N/NS(=O)(=O)c1ccc(C)cc1
- TGI [1]: > 100 µM
- TGI [2]: > 100 µM
- TGI [3]: > 100 µM
- TGI [4]: > 100 µM
- TGI [5]: > 100 µM
- TGI [7]: > 100 µM
- TGI [8]: > 100 µM
- TGI [9]: > 100 µM
- TGI [10]: > 100 µM

SMILES: CO[C@H]1C[C@](C)(O)Cc2cc3c(c(O)c21)C(=O)c1c(O)cc2c(c1C3=O)O[C@@H]1O[C@@]2(C)[C@H](O)[C@@H](N(C)C)[C@@H]1O
- GI50 [1]: 0.461 µM
- TGI [1]: 1.58 µM and 2.48 µM
- GI50 [2]: 0.847 µM
- TGI [2]: 3.87 µM and 7.69 µM
- GI50 [3]: 1.56 µM
- TGI [3]: 5.79 µM and 15.6 µM
- GI50 [4]: 1.67 µM
- TGI [4]: 4.08 µM and 22.3 µM
- GI50 [5]: 1.13 µM
- TGI [5]: 2.51 µM and 3.03 µM
- GI50 [6]: 0.114 µM
- TGI [6]: 2.1 µM and 1.59 µM
- GI50 [7]: 1.52 µM
- TGI [7]: 7.01 µM and 11.9 µM
- GI50 [8]: 0.0296 µM and 0.0271 µM
- TGI [8]: 0.186 µM and 0.664 µM
- GI50 [9]: 3.78 µM
- TGI [9]: 7.55 µM and 31.6 µM
- GI50 [10]: 0.159 µM
- TGI [10]: 0.797 µM and 1.64 µM

SMILES: Cc1c(N)nc(C(CC(N)=O)NCC(N)C(N)=O)nc1C(=O)NC(C(=O)NC(C)C(O)C(C)C(=O)NC(C(=O)NCCc1nc(-c2nc(C(=O)NCCCNC(C)c3ccccc3)cs2)cs1)C(C)O)C(OC1OC(CO)C(O)C(O)C1OC1OC(CO)C(O)C(OC(N)=O)C1O)c1cnc[nH]1 (stereo not drawn)
- GI50 [1]: 2.32 µM
- TGI [1]: 24 µM and 56.6 µM
- GI50 [2]: 24.8 µM
- TGI [2]: 50 µM and > 100 µM
- TGI [3]: 50 µM and > 100 µM
- TGI [4]: 50 µM
- GI50 [5]: 1.76 µM
- TGI [5]: 49.4 µM and > 100 µM
- GI50 [6]: 2 µM
- GI50 [7]: 11.1 µM
- TGI [7]: 50 µM and 94.7 µM
- GI50 [8]: 3.75 µM
- TGI [8]: 25.9 µM and > 100 µM
- GI50 [9]: 56.5 µM
- TGI [9]: 50 µM and > 100 µM
- GI50 [10]: 32 µM
- TGI [10]: 50 µM and > 100 µM

SMILES: CCCCCCCC/C=C1\CCC(CN2CCOCC2)C1=O (stereo not drawn)
- TGI [1]: 28 µM
- TGI [2]: 8.39 µM
- TGI [3]: 20.5 µM
- TGI [4]: 8.03 µM
- TGI [5]: 13.6 µM
- TGI [6]: 23.8 µM
- TGI [7]: 21.1 µM
- TGI [8]: 5.35 µM
- TGI [9]: 21.7 µM
- TGI [10]: 14.8 µM

SMILES: Cc1cc(C)c(C(=O)O)c(SSc2cc(C)cc(C)c2C(=O)O)c1
- TGI [1]: > 100 µM
- TGI [2]: > 100 µM
- TGI [3]: > 100 µM
- TGI [4]: > 100 µM
- TGI [6]: > 100 µM
- TGI [7]: > 100 µM
- TGI [8]: > 100 µM
- TGI [9]: > 100 µM
- TGI [10]: > 100 µM

SMILES: CC(C)c1cccc(O)c(=O)c1
- GI50 [1]: 1.23 µg/mL
- GI50 [2]: 3.56 µg/mL
- TGI [2]: > 75 µg/mL and > 100 µM
- GI50 [3]: 1.34 µg/mL
- TGI [4]: > 100 µM
- GI50 [5]: 3.81 µg/mL
- TGI [5]: > 75 µg/mL and > 40.2 µM
- GI50 [6]: 2.97 µg/mL
- GI50 [7]: 1.55 µg/mL
- TGI [7]: 23.6 µg/mL and > 61.6 µM
- TGI [8]: > 46.9 µM
- GI50 [9]: 2.33 µg/mL
- TGI [9]: 23 µg/mL and 46.6 µM
- GI50 [10]: 1.25 µg/mL

SMILES: COc1cc(NS(C)(=O)=O)ccc1NCc1c2ccccc2nc2ccccc12
- TGI [1]: > 100 µM
- TGI [2]: > 100 µM
- TGI [3]: > 100 µM
- TGI [4]: 85.4 µM
- TGI [5]: 36.6 µM
- TGI [6]: > 100 µM
- TGI [7]: > 100 µM
- TGI [8]: 35 µM
- TGI [9]: > 100 µM
- TGI [10]: 47.4 µM

SMILES: COc1ccc2oc(-c3ccc(OC)c(OC)c3OC)cc(=O)c2c1
- TGI [2]: > 100 µM
- TGI [3]: > 100 µM
- TGI [4]: > 100 µM
- TGI [5]: > 100 µM
- TGI [6]: > 100 µM
- TGI [7]: > 100 µM
- TGI [9]: > 100 µM
- TGI [10]: 55 µM

SMILES: CCCCc1c2cnccc2c(CCCC)c2c1[nH]c1ccccc12
- TGI [1]: 27 µM
- TGI [2]: > 100 µM
- TGI [3]: 29 µM
- TGI [4]: > 100 µM
- TGI [5]: 18.1 µM
- TGI [6]: 30.2 µM
- TGI [7]: 47.1 µM
- TGI [8]: 23.7 µM
- TGI [9]: 36 µM

SMILES: CC1CC(C)C2OC2(C)C[C@H](C)C(=O)NC(C)C(=O)N(C)[C@H](Cc2c(Br)[nH]c3ccccc23)C(=O)N[C@@H](c2ccc(O)cc2)CC(=O)O1 (stereo partly drawn)
- TGI [1]: 2.98 µM
- TGI [2]: > 90.2 µM
- TGI [4]: > 100 µM
- TGI [5]: > 33.1 µM
- TGI [6]: 4.71 µM
- TGI [8]: 57.3 µM
- TGI [9]: 13.3 µM
- TGI [10]: 0.783 µM

SMILES: COc1cc2c(cc1OC)C1Cc3ccc(OC)c(OC)c3C[N+]1([O-])CC2 (stereo not drawn)
- TGI [1]: > 100 µM
- TGI [2]: > 100 µM
- TGI [3]: > 100 µM
- TGI [4]: > 100 µM
- TGI [5]: > 100 µM
- TGI [6]: > 100 µM
- TGI [7]: > 100 µM
- TGI [8]: > 100 µM
- TGI [9]: > 100 µM
